# According to patent US20150329501A1, “SUBSTITUTED [1,2,4]TRIAZOLE COMPOUNDS AND THEIR USE AS FUNGICIDES” (BASF SE, priority 2012, published 2015):
# Tests used:
# [1] = test system: Pyricularia oryzae; type: cell-based; conditions: relative growth vs active compound-free control (100%), microtiter plate, 405 nm, 7 days after inoculation
# [2] = test system: Phytophthora infestans; type: cell-based; conditions: relative growth vs active compound-free control (100%), microtiter plate, 405 nm, 7 days after inoculation
# [3] = test system: Septoria tritici; test: Microtest: activity against leaf blotch on wheat caused by Septoria tritici (Septtr) (M1, M6, M2-3, CM4); type: cell-based; conditions: 405 nm, 7 days after inoculation; for Growth (%) at 0.5 ppm Septtr: relative growth vs active compound-free control (100%), microtiter plate; for relative growth in % of the pathogen: 31 ppm, compound-free control = 100%
# [4] = test system: Botrytis cinerea; test: Microtest: activity against the grey mold Botrytis cinerea in the microtiterplate test (Botrci) (M2, M4, M2-1, CM3); type: cell-based; conditions: relative growth vs active compound-free control (100%), microtiter plate, 405 nm, 7 days after inoculation
# [5] = test system: Phakopsora pachyrhizi; test: Green house: curative control of soy bean rust on soy beans caused by Phakopsora pachyrhizi (Phakpa K2) (G2-3); type: in vivo; conditions: 125 ppm, sprayed after inoculation (curative), untreated plants 90% infected
# [6] = test system: Botrytis cinerea; test: Green house: preventative fungicidal control of Botrytis cinerea on leaves of green pepper (Botrci P1) (G2-1); type: in vivo; conditions: 125 ppm, sprayed the day before inoculation, untreated plants 90% infected
# Procedure: Young seedlings of green pepper were grown in pots to the 4 to 5 leaf stage. […] The next day the plants were inoculated with an aqueous biomalt solution containing the spore suspension of Botrytis cinerea.
# [7] = test system: Alternaria solani; test: Green house: preventative fungicidal control of early blight on tomatoes (Alternaria solani) (Alteso P1) (G2, G2-2); conditions: 125 ppm, sprayed the day before inoculation; tomato; untreated plants 70% infected
# Procedure: Water was then added to total volume of 100 ml. This stock solution was diluted with the described solvent-emulsifier-water mixture to the given concentration.
# Young seedlings of tomato plants were grown in pots. These plants were sprayed to run-off with an aqueous suspension, containing the concentration of active ingredient or mixture mentioned in the table below. The next day, the treated plants were inoculated with an aqueous suspension of Alternaria solani. Then the trial plants were immediately transferred to a humid chamber. After 5 days at 18 to 20° C. and a relative humidity close to 100%, the extent of fungal attack on the leaves was visually assessed as % diseased leaf area.
compound,measurement,setting,value
CC(C)(C)C(O)(Cn1cncn1)c1cccc(Oc2ccc(Cl)cc2)c1 (stereo not shown) [Compound I-24],Growth (%) at 8 ppm Pyrior,[1],0%
same,Growth (%) at 31 ppm Phytin,[2],42%
same,Growth (%) at 0.5 ppm Septtr,[3],13%
same,Growth (%) at 31 ppm Botrci,[4],9%
CC(C)(C)C(O)(Cn1cncn1)c1cc(Cl)cc(Oc2ccc(Cl)cc2)c1 (stereo not shown) [Compound I-31],Growth (%) at 8 ppm Pyrior,[1],0%
CC(C)(C)C(O)(Cn1cncn1)c1cc(Cl)cc(-c2ccc(Cl)cc2)c1 (stereo not shown) [Compound I-27],infection (% diseased leaf area),[5],7%
C#CCC(O)(Cn1cncn1)c1cccc(-c2ccc(Cl)cc2)c1 (stereo not shown) [Compound I-30],infection (% diseased leaf area),[6],1%
same,infection (% diseased leaf area),[7],1%
same,relative growth in % of the pathogen,[3],0%
same,infection (% diseased leaf area),[5],1%
CC(C)(C)C(O)(Cn1cncn1)c1cc(Cl)cc(Oc2ccccc2)c1 (stereo not shown),Growth (%) at 8 ppm Pyrior,[1],69%
OC(Cn1cncn1)(c1cccc(-c2ccc(Cl)cc2)c1)C(F)(F)F (stereo not shown) [Compound I-29],infection (% diseased leaf area),[6],1%
same,infection (% diseased leaf area),[7],10%
same,relative growth in % of the pathogen,[3],0%
same,infection (% diseased leaf area),[5],0%
CC(C)(C)C(O)(Cn1cncn1)c1cccc(Oc2ccccc2)c1 (stereo not shown),Growth (%) at 8 ppm Pyrior,[1],89%
same,Growth (%) at 31 ppm Phytin,[2],80%
same,Growth (%) at 0.5 ppm Septtr,[3],83%
same,Growth (%) at 31 ppm Botrci,[4],76%
